How the values were obtained:
BaF3 [1] = assay: Inhibition of cell growth in mouse BaF3 cells harboring EGFR del19/T790M/C797S mutant incubated for 72 hrs by fluorescence based assay; format: functional; conditions: BaF3, 72 h
BaF3 [2] = assay: Antiproliferative activity against mouse BaF3 cells harboring EGFR C797S/L858R/T790M mutant; format: functional, cell-based
BaF3 [3] = assay: Antiproliferative activity against mouse BaF3 cells harboring EGFR C797S/Del19/T790M mutant; format: functional, cell-based
[4] = biological target: Epidermal growth factor receptor (Homo sapiens, UniProt P00533, L858R/T790M); assay: Inhibition of EGFR T790M/L858R mutant (unknown origin)
[5] = biological target: Epidermal growth factor receptor (Homo sapiens, UniProt P00533); assay: Inhibition of wild-type EGFR (unknown origin)
[6] = biological target: Epidermal growth factor receptor (Homo sapiens, UniProt P00533, C797S/L858R/T790M); assay: Inhibition of EGFR C797S/T790M/L858R mutant (unknown origin)
[7] = biological target: Epidermal growth factor receptor (Homo sapiens, UniProt P00533, C797S/EX19DEL/T790M); assay: Inhibition of EGFR C797S/T790M/Del19 mutant (unknown origin)
[8] = Toxicity in nude mouse xenografted with human NCI-H1975 cells assessed as body weight loss at 25 mg/kg, po measured for 7 days; format: organism-based; conditions: in vivo, 168 h, time 7 day
[9] = Cytotoxicity against human HK-2 cells; format: toxicity, cell-based
[10] = Cytotoxicity against human HaCaT cells; format: toxicity, cell-based
[11] = Cytotoxicity against VEGF-stimulated human HUVEC cells; format: toxicity, cell-based
[12] = Cytotoxicity against human HUVEC cells; format: toxicity, cell-based
[13] = Cytotoxicity against human L02 cells; format: toxicity, cell-based
BaF3 [14] = assay: Inhibition of cell growth in mouse BaF3 cells harboring EGFR del19/T790M/C797S mutant; format: functional, cell-based
BaF3 [15] = assay: Inhibition of cell growth in mouse BaF3 cells harboring EGFR L858R/T790M/C797S mutant; format: functional, cell-based
BaF3 [16] = assay: Inhibition of cell proliferation in mouse BaF3 cells harboring EGFR L858R/T790M mutant incubated for 72 hrs by MTS assay; format: functional, cell-based; conditions: BaF3, 72 h

Epidermal growth factor receptor (Homo sapiens, UniProt P00533), sequence (P00533 whole entry): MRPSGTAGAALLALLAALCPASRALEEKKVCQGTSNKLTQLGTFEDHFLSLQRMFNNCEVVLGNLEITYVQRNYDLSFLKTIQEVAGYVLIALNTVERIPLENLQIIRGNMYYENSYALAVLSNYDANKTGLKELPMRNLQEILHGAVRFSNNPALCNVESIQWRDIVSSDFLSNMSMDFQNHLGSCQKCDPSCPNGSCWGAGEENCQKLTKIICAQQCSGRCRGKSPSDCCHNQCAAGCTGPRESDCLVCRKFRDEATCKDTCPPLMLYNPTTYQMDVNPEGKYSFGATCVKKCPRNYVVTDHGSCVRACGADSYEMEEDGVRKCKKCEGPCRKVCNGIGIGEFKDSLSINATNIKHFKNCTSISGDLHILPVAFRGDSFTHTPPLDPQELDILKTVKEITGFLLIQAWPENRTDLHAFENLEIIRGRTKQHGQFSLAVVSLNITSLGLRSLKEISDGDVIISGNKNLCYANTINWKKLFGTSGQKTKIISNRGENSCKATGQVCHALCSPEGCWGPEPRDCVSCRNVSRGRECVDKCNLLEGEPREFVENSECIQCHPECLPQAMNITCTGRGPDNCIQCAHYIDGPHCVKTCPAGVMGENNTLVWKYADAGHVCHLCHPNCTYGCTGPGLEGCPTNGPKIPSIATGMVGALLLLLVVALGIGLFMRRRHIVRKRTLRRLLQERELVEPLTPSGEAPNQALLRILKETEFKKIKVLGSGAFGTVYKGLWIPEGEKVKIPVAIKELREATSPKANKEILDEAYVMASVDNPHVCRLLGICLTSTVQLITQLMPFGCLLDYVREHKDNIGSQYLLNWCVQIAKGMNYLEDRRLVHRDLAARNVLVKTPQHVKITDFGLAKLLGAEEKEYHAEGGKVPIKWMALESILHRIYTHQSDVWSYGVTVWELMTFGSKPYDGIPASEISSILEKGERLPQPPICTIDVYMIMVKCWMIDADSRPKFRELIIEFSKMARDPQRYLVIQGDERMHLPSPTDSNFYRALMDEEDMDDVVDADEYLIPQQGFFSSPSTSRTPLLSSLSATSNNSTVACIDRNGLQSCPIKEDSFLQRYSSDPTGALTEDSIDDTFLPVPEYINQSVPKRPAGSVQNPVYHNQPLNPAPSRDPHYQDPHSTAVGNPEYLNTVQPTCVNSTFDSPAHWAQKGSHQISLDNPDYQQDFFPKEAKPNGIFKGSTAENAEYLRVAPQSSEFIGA
Epidermal growth factor receptor (Homo sapiens, UniProt P00533, C797S/EX19DEL/T790M), sequence (P00533 whole entry, looked up, stated change not applied): as the sequence (P00533 whole entry) above
Epidermal growth factor receptor (Homo sapiens, UniProt P00533, L858R/T790M), sequence (P00533 25-1210 T790M/L858R limits assumed): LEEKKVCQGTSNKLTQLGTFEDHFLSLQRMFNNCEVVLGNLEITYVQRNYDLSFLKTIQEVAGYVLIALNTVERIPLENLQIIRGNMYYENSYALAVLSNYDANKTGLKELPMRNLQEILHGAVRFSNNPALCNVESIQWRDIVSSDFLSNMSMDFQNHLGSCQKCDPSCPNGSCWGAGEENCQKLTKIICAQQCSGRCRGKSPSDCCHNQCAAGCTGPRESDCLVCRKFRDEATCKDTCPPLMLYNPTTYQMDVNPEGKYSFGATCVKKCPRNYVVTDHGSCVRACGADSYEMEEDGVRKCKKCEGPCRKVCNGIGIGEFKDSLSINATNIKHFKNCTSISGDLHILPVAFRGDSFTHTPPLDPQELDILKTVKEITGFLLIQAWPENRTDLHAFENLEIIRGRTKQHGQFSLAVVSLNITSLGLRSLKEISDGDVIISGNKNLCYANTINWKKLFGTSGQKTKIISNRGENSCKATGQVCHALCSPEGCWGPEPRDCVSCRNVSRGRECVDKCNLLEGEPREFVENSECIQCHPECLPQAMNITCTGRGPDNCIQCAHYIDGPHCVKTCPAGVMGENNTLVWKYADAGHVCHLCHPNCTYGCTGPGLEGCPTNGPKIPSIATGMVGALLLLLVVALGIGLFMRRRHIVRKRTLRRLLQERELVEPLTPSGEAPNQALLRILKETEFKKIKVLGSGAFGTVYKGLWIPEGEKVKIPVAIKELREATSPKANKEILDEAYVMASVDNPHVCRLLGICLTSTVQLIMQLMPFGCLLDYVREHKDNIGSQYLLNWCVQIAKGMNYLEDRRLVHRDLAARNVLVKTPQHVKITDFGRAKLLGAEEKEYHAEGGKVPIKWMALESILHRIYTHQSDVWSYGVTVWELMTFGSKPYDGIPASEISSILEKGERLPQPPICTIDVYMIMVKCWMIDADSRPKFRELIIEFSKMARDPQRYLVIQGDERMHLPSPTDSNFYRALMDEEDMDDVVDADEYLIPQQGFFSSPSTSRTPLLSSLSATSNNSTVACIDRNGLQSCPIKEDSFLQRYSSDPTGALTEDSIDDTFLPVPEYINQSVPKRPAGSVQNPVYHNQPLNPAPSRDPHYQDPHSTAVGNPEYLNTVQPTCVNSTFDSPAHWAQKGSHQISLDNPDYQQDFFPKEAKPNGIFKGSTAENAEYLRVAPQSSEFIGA
Epidermal growth factor receptor (Homo sapiens, UniProt P00533, C797S/L858R/T790M), sequence (P00533 25-1210 T790M/C797S/L858R limits assumed): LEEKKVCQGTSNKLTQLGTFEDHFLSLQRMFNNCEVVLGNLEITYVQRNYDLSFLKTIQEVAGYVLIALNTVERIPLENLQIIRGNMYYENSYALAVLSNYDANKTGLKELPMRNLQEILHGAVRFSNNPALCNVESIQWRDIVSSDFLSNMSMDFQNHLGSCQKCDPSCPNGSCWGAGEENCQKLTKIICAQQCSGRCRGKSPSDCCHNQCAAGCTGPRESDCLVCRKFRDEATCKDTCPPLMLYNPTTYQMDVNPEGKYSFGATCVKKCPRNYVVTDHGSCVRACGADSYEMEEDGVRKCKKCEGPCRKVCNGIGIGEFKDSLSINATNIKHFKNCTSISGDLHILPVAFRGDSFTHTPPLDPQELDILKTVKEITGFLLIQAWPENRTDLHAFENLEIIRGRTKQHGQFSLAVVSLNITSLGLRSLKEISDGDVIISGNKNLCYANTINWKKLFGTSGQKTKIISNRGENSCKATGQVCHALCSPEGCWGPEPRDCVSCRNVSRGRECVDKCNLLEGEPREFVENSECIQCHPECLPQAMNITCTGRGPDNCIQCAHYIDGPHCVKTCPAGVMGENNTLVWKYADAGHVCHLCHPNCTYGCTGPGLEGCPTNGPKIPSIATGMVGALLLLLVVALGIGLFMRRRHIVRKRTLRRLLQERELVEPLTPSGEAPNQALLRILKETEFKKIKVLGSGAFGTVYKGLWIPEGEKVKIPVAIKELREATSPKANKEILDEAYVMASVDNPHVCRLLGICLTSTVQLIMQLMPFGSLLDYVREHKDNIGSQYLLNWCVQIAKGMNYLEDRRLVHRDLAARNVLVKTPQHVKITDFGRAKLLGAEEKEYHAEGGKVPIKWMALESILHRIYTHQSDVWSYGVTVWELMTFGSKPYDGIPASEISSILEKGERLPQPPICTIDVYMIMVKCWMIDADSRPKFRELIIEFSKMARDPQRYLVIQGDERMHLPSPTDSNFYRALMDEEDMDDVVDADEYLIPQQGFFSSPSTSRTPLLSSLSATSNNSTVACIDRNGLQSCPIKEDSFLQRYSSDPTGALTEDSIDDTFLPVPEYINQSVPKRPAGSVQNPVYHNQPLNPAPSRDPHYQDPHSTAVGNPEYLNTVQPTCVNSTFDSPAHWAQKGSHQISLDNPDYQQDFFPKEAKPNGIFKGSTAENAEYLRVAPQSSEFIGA

SMILES | IC50 (BaF3 [2]) [nM] | IC50 (BaF3 [3]) [nM] | other results
COc1cc(N2CCC(N3CCN(C)CC3)CC2)ccc1Nc1ncc(Cl)c(Nc2ccccc2NS(C)(=O)=O)n1 |  |  | IC50 (BaF3 [1]): 27 nM
CN(C)CCn1ccc2cccc(Nc3ncc(Br)c(Nc4ccccc4NS(=O)(=O)C4CC4)n3)c21 | 324 | 388 | 
Cc1cc(Nc2ncc(Cl)c(Nc3ccccc3NS(=O)(=O)C3CC3)n2)ccc1N1CCCN(C)CC1 | 4 | 8 | 
C=CC(=O)Nc1cc(Nc2nccc(-c3cn(C)c4ccccc34)n2)c(OC)cc1N(C)CCN(C)C [OSIMERTINIB] |  |  | Activity [8]: Toxic; IC50 [9]: 2140 nM; IC50 [10]: 3360 nM; IC50 [11]: 2400 nM; IC50 [12]: 2400 nM
CN(C)C1CCN(c2ccc(Nc3ncc(Cl)c(Nc4ccccc4NS(=O)(=O)C4CC4)n3)cc2NS(C)(=O)=O)CC1 | 844 | 795 | 
CN(C)CCN(C)c1ccc(Nc2ncc(Br)c(Nc3ccccc3NS(=O)(=O)C3CC3)n2)cc1 | 15 | 13 | 
CN(C)CCn1ccc2cccc(Nc3ncc(Cl)c(Nc4ccccc4NS(=O)(=O)C4CC4)n3)c21 | 356 | 342 | 
CN1CCCN(c2ccc(Nc3ncc(Cl)c(Nc4ccccc4NS(=O)(=O)C4CC4)n3)cc2)CC1 | 10 | 8 | 
CN(C)C1CCN(c2ccc(Nc3ncc(Br)c(Nc4ccccc4NS(=O)(=O)C4CC4)n3)cc2NS(=O)(=O)C2CC2)CC1 | 398 | 410 | 
Cn1ccc2c(Nc3ncc(Cl)c(Nc4ccccc4NS(=O)(=O)C4CC4)n3)cccc21 | 211 | 199 | 
COc1cc(N2CCC(N(C)C)CC2)ccc1Nc1ncc(Cl)c(Nc2ccccc2NS(=O)(=O)C2CC2)n1 | 98 | 101 | 
CN1CCCN(c2ccc(Nc3ncc(Cl)c(Nc4ccccc4NS(=O)(=O)C4CC4)n3)cc2NS(C)(=O)=O)CC1 | 723 | 712 | 
CN(C)C1CCN(c2ccc(Nc3ncc(Br)c(Nc4ccccc4NS(=O)(=O)C4CC4)n3)cc2)CC1 | 4 | 4 | 
Cc1cc(Nc2ncc(Br)c(Nc3ccccc3NS(=O)(=O)C3CC3)n2)ccc1N1CCC(N(C)C)CC1 | 3 | 4 | 
Cn1ccc2ccc(Nc3ncc(Cl)c(Nc4ccccc4NS(=O)(=O)C4CC4)n3)cc21 | 284 | 274 | 
CN1CCN(c2ccc(Nc3ncc(Cl)c(Nc4ccccc4P(C)(C)=O)n3)cc2Br)CC1 |  |  | IC50 (BaF3 [14]): 2.4 nM; IC50 (BaF3 [15]): 3.1 nM
Cn1ccc2c(Nc3ncc(Br)c(Nc4ccccc4NS(=O)(=O)C4CC4)n3)cccc21 | 183 | 177 | 
O=C(Nc1nccs1)C(c1cc(F)ccc1O)N1Cc2ccccc2C1=O (stereo unspecified) |  |  | IC50 (BaF3 [16]): ~10 nM
CN(C)C1CCN(c2ccc(Nc3ncc(Br)c(Nc4ccccc4NS(=O)(=O)C4CC4)n3)cc2NS(C)(=O)=O)CC1 | 785 | 769 | 
COc1cc(N2CCCN(C)CC2)ccc1Nc1ncc(Cl)c(Nc2ccccc2NS(=O)(=O)C2CC2)n1 | 82 | 79 | 
Cn1ccc2ccc(Nc3ncc(Br)c(Nc4ccccc4NS(=O)(=O)C4CC4)n3)cc21 | 257 | 271 | 

The next lines start with results.

IC50 (BaF3 [2]) [nM] | IC50 (BaF3 [3]) [nM] | SMILES | other results
2 | 1 | Cc1cc(Nc2ncc(Cl)c(Nc3ccccc3NS(=O)(=O)C3CC3)n2)ccc1N1CCC(N(C)C)CC1 | IC50 [4]: 12.6 nM; IC50 [5]: 68.7 nM; IC50 [6]: 0.37 nM; IC50 [7]: 0.29 nM
103 | 115 | Cn1cnc2ccc(Nc3ncc(Br)c(Nc4ccccc4NS(=O)(=O)C4CC4)n3)cc21 | 
71 | 65 | COc1cc(N2CCC(N3CCN(C)CC3)CC2)ccc1Nc1ncc(Cl)c(Nc2ccccc2P(C)(C)=O)n1 [BRIGATINIB] | IC50 [9]: 2130 nM; IC50 [10]: 5020 nM; IC50 [11]: 2400 nM; IC50 [13]: 1400 nM; IC50 [12]: 2170 nM
79 | 75 | COc1cc(N2CCC(N(C)C)CC2)ccc1Nc1ncc(Br)c(Nc2ccccc2NS(=O)(=O)C2CC2)n1 | 
1 | 1 | Cc1cc(Nc2ncc(Br)c(Nc3ccccc3NS(=O)(=O)C3CC3)n2)ccc1N1CCCN(C)CC1 | IC50 [4]: 10.2 nM; IC50 [5]: 61.3 nM; IC50 [6]: 0.28 nM; IC50 [7]: 0.3 nM
613 | 608 | CCS(=O)(=O)Nc1cc(Nc2ncc(Br)c(Nc3ccccc3NS(=O)(=O)C3CC3)n2)ccc1N1CCC(N(C)C)CC1 | 
29 | 22 | Cc1cc(Nc2ncc(Cl)c(Nc3ccccc3NS(=O)(=O)C3CC3)n2)ccc1N(C)CCN(C)C | 
698 | 682 | CCS(=O)(=O)Nc1cc(Nc2ncc(Cl)c(Nc3ccccc3NS(=O)(=O)C3CC3)n2)ccc1N1CCCN(C)CC1 | 
175 | 191 | O=S(=O)(Nc1ccccc1Nc1nc(Nc2cccc3[nH]cnc23)ncc1Cl)C1CC1 | 
17 | 15 | Cc1cc(Nc2ncc(Br)c(Nc3ccccc3NS(=O)(=O)C3CC3)n2)ccc1N(C)CCN(C)C | 
28 | 24 | CN(C)CCN(C)c1ccc(Nc2ncc(Cl)c(Nc3ccccc3NS(=O)(=O)C3CC3)n2)cc1 | 
196 | 185 | O=S(=O)(Nc1ccccc1Nc1nc(Nc2cccc3[nH]ccc23)ncc1Cl)C1CC1 | 
413 | 407 | CN1CCCN(c2ccc(Nc3ncc(Cl)c(Nc4ccccc4NS(=O)(=O)C4CC4)n3)cc2NS(=O)(=O)C2CC2)CC1 | 
377 | 351 | CN1CCCN(c2ccc(Nc3ncc(Br)c(Nc4ccccc4NS(=O)(=O)C4CC4)n3)cc2NS(=O)(=O)C2CC2)CC1 | 
791 | 775 | CN1CCCN(c2ccc(Nc3ncc(Br)c(Nc4ccccc4NS(=O)(=O)C4CC4)n3)cc2NS(C)(=O)=O)CC1 | 
67 | 65 | COc1cc(N2CCCN(C)CC2)ccc1Nc1ncc(Br)c(Nc2ccccc2NS(=O)(=O)C2CC2)n1 | 
185 | 198 | Cn1cnc2ccc(Nc3ncc(Cl)c(Nc4ccccc4NS(=O)(=O)C4CC4)n3)cc21 | 
631 | 635 | CCS(=O)(=O)Nc1cc(Nc2ncc(Br)c(Nc3ccccc3NS(=O)(=O)C3CC3)n2)ccc1N1CCCN(C)CC1 | 
15 | 11 | CN(C)C1CCN(c2ccc(Nc3ncc(Cl)c(Nc4ccccc4NS(=O)(=O)C4CC4)n3)cc2)CC1 | 
124 | 159 | O=S(=O)(Nc1ccccc1Nc1nc(Nc2cccc3[nH]ccc23)ncc1Br)C1CC1 | 

— ChEMBL document CHEMBL5579839, “Discovery of new cyclopropane sulfonamide derivatives as EGFR inhibitors to overcome C797S-mediated resistance and EGFR double mutation” (Eur J Med Chem, 2024)
